Assay results from ChEMBL document CHEMBL3739343, “Identification and activity of inhibitors of the essential nematode-specific metalloprotease DPY-31” (Bioorg Med Chem Lett, 2015).
Active and inactive are the calls of the source. No cut-off for these calls is given here. Where a SMILES comes first, the peptide text is derived from it.

What was measured:
[1] = target: T1, Zinc metalloproteinase dpy-31 (Teladorsagia circumcincta, UniProt A0A0C5PRQ1); experiment: Inhibition of recombinant Teladorsagia circumcincta DPY-31 astacin domain expressed in Escherichia coli using Suc-Ala-Ala-Ala-pNA as substrate preincubated for 3 hrs followed by substrate addition measured after 3 hrs by microplate reader assay
T1 sequence (A0A0C5PRQ1 whole entry): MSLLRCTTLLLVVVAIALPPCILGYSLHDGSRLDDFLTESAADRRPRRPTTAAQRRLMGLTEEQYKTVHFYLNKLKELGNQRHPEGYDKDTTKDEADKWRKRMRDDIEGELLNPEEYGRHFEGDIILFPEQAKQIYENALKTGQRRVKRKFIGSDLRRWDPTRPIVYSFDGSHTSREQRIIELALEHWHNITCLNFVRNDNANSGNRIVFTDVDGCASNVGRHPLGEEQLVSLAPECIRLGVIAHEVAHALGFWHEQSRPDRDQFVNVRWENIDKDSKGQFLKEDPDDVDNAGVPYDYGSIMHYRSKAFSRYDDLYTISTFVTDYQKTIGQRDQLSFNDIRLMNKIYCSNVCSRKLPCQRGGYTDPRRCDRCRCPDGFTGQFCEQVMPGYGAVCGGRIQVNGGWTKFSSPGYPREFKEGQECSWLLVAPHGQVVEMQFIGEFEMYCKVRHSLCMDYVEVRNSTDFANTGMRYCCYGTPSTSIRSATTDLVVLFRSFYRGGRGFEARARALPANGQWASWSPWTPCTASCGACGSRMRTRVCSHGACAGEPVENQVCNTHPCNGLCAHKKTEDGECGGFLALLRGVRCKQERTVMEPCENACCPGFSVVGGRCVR

[2] = test system: Teladorsagia circumcincta; experiment: Antiparasitic activity against Teladorsagia circumcincta L3 assessed as induction of Dpy phenotype at 500 uM after 3 days by microscopic analysis; format: functional, organism-based
[3] = target: T2, Zinc metalloproteinase dpy-31 (Brugia malayi, UniProt A8Q2D1); experiment: Inhibition of recombinant Brugia malayi DPY-31 astacin domain expressed in Escherichia coli using Suc-Ala-Ala-Ala-pNA as substrate preincubated for 3 hrs followed by substrate addition measured after 3 hrs by microplate reader assay
T2 sequence (A8Q2D1 whole entry): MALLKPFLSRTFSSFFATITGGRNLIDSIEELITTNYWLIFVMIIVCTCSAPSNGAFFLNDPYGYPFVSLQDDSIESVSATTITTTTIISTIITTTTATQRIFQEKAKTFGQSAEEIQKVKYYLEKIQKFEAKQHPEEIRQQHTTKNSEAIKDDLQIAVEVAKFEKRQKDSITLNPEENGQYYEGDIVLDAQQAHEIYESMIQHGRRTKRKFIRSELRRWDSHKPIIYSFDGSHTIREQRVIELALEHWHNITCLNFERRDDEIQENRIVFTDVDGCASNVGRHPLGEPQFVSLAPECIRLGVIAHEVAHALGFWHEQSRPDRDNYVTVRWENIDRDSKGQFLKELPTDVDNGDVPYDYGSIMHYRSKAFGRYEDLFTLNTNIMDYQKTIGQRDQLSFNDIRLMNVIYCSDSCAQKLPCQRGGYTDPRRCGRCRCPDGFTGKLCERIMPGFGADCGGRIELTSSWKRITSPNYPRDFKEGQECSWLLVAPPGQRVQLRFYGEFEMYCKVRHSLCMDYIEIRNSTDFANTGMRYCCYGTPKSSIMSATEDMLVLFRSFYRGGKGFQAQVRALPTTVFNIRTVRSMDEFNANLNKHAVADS

Caenorhabditis elegans [4] = experiment: Antiparasitic activity against Teladorsagia circumcincta dpy-31 transgenically-rescued Caenorhabditis elegans dpy-31 mutant TP224 assessed as induction of Dpy phenotype at 100 uM after 3 days by microscopic analysis; format: functional, organism-based
Caenorhabditis elegans [5] = experiment: Antiparasitic activity against wild type Caenorhabditis elegans N2 assessed as induction of Dpy phenotype at 50 uM measured after 3 days by microscopic analysis; format: functional, organism-based

SMILES	IC50 [1] [µM]	Activity [2]	IC50 ([3]; read-out: pIC50 (converted)) [µM]	Activity (Caenorhabditis elegans [4])	Activity (Caenorhabditis elegans [5])	IC50 ([3]; read-out: IC50) [µM]
C[C@H](NC(=O)[C@@H]1CCCN1C(=O)OCC1c2ccccc2-c2ccccc21)C(=O)N[C@@H](Cc1ccccc1)C(=O)NO (HELM PEPTIDE1{[O=C(OCC1c2ccccc2-c2ccccc21)[*:2]].P.A.F.[ON[*:1]]}$$$$V2.0)	31.6	Active	25.1	Active	Active	–
C[C@H](NC(=O)[C@@H]1CCCN1C(=O)OC(C)(C)C)C(=O)N[C@@H](Cc1ccccc1)C(=O)NO (HELM PEPTIDE1{[CC(C)(C)OC(=O)[*:2]].P.A.F.[ON[*:1]]}$$$$V2.0)	25.1	Active	79.4	Active	Active	–
CNC(=O)[C@@H](NC(=O)[C@H](CC(C)C)[C@H](O)C(=O)NO)C(C)(C)C [MARIMASTAT]	79.4	–	–	–	–	–
COC(=O)[C@@H]1CCCN1C(=O)[C@H](C)CP(=O)(O)[C@H](Cc1ccccc1)NC(=O)[C@H](CCCCN)NC(=O)[C@@H]1CCCN1C(=O)OCc1ccccc1	–	–	–	–	–	> 500
O=C(C[C@@H](CCCC1CCCCC1)c1nc(-c2cc(C(=O)O)ccn2)no1)NO	39.8	–	20	–	–	–
